Here are results for 2 compounds from patent publication US20260263553A1, “METHODS OF TREATING A LOCALIZED INFECTION WITH LOCALLY ADMINISTERED ANTIBIOTICS” (Osteal Therapeutics, Inc., priority 2023, published 2026).

The conditions of data set [1]: in vivo; cited from earlier work.
A short description of data set [2]: Serum concentrations during 7-day local irrigation of the infected joint (PJI clinical investigation). Type of data set: in vivo, human. The following applies: daily dose 2.6 g at 2,500 mcg/mL by irrigation for 7 days. The protocol:
Irrigation of vancomycin and tobramycin within the manufacturer's recommended systemic dose for the treatment of PJI has been investigated clinically. A daily dose of 2.6 g vancomycin at a concentration of 2,500 mcg/mL and a daily dose of 80 mg of tobramycin at 1,600 mcg/mL were administered by irrigation to the infected joint for 7 days following stage one surgery of a two-stage exchange arthroplasty treatment. […] The serum concentrations of vancomycin over a 7-day period for 37 human subjects who received local irrigation of 50 cc at a concentration of 2,500 mcg/mL intermittently are shown in FIG. 6.

Data set [3] relates to common PJI organisms. Put plainly: Minimum biofilm eradication concentration (MBEC). The data set is classed as cell-based. The following applies: multiple common PJI organisms. From the text: The formation of biofilm, a frequent occurrence in infected wounds with a medical device in situ such as PJI, BII, or FRI, begins early after onset of infection and provides an additional mechanism of resistance to antibiotic therapy. It is well established that the organisms in a mature biofilm structure, formed in a matter of days or a few weeks, are not susceptible to common antibiotics at the typical MIC of planktonic counterparts. […] The concentration at which eradication of an organism in a biofilm is accomplished is known as the minimum biofilm eradication concentration (MBEC) for the specific antimicrobial agent and organism tested. MBEC is not the same for all antimicrobial agents used to treat the same organism, nor is it the same for one antimicrobial agent applied to different strains or organisms.

For data set [4] the following is noted: instillation of 50,000-100,000 mcg/mL once or twice daily into the joint space; cited from earlier work.

With `NC[C@H]1O[C@H](O[C@H]2[C@H](O)[C@@H](O[C@H]3O[C@H](CO)[C@@H](O)[C@H](N)[C@H]3O)[C@H](N)C[C@@H]2N)[C@H](N)C[C@@H]1O` [tobramycin], in data set [1], the “maximum safe level, peak serum concentrations” value was 10 µg/mL and the “sustained trough levels associated with toxicity” value is over 2 µg/mL.

For the compound `CN[C@H](CC(C)C)C(=O)N[C@H]1C(=O)N[C@@H](CC(N)=O)C(=O)N[C@H]2C(=O)N[C@H]3C(=O)N[C@H](C(=O)N[C@H](C(=O)O)c4cc(O)cc(O)c4-c4cc3ccc4O)[C@H](O)c3ccc(c(Cl)c3)Oc3cc2cc(c3O[C@@H]2O[C@H](CO)[C@@H](O)[C@H](O)[C@H]2O[C@H]2C[C@](C)(N)[C@H](O)[C@H](C)O2)Oc2ccc(cc2Cl)[C@H]1O` [vancomycin], in data set [2], the serum concentration levels entry is listed as “well below the safe serum concentration”. Further, the “maximum safe level, trough serum concentrations” value in data set [1] is 30 µg/mL. Also, the MBEC result in data set [3] is reported as “greater than 4,000 mcg/mL”. For the same compound, the serum concentrations result in data set [4] was “serum concentrations exceeding safe limits in multiple patients”.
